Results: patent US6821965B1, “Amidobenzamide derivatives which are useful as cytokine inhibitors” (AsterZeneca AB, priority 1998, dated 2004)

Key:
p38α = target: T1, p38α (Homo sapiens, UniProt Q16539); assay: In vitro enzyme assay, p38α kinase; type: biochemical; settings: approximate value; read-out: IC50 against p38α
T1 construct: c-myc (N); 6His (N); made in house; host or cells: E. coli (PET vectors)
Protocol: The ability of compounds of the invention to inhibit the enzyme p38 kinase was assessed. Activity of test compounds against each of the p38α and p38β isoforms of the enzyme was determined.
Human recombinant MKK6 (GenBank Accesion Number G1209672) was isolated from Image clone 45578 (Genomics 1996, 33, 151) and utilised to produce protein in the form of a GST fusion protein in a pGEX vector using analogous procedures to those disclosed by J. Han el al., Journal of Biological Chemistry, 1996, 271, 2886-2891. p38α (GenBank Accession Number G529039) and p38β (GenBank Accession Number G1469305) were isolated by PCR amplification of human lymphoblastoid cDNA (GenBank Accession Number GM1416) and human foetal brain cDNA [synthesised from mRNA (Clontech, catalogue no. 6525-1) using a Gibco superscript cDNA synthesis kit] respectively using oligonucleotides designed for the 5′ and 3′ ends of the human p38α and p38β genes using analogous procedures to those described by J. Han et al., Biochimica et Biophysica Acta, 1995, 1265, 224-227 and Y. Jiang et al., Journal of Biological Chemistry 1996, 271, 17920-17926.
Both p38 protein isoforms were expressed in e coli in PET vectors. Human recombinant p38α and p38β isoforms were produced as 5′ c-myc, 6His tagged proteins. Both MKK6 and the p38 proteins were purified using standard protocols: the GST MKK6 was purified using a glutathione sepharose column and the p38 proteins were purified using nickel chelate columns.
The p38 enzymes were activated prior to use by, incubation with MKK6 for 3 hours at 30° C. The unactivated coli-expressed MKK6 retained sufficient activity to fully activate both isoforms of p38. The activation incubate comprised p38α (10 μl of 10 mg/ml) or p38β (10 μl of 5 mg/ml) together with MKK6 (10 μl of 1 mg/ml), ‘Kinase buffer’ [100 μl; pH 7.4 buffer comprising Tris (50 mM), EGTA (0.1 mM), sodium orthovanadate (0.1 mM) and β-mercaptoethanol (0.1%)] and MgATP (30 μl of 50 mM Mg(OCOCH3)2 and 0.5 mM ATP). This produced enough activated p38 enzyme for 3 Microtiter plates.
Test compounds were solubilised in DMSO and 10 μl of a 1:10 diluted sample in ‘Kinase Buffer’ was added to a well in a Microtiter plate. For single dose testing, the compounds were tested at 10 μM. ‘Kinase Assay Mix’ [30 μl; comprising Myelin Basic Protein (Gibco BRL cat no. 1322B-θ10; 1 ml of a 3.33 mg/ml solution in water), activated p38 enzyme (50 μl) and ‘Kinase Buffer’ (2 ml)] was then added followed by ‘Labelled ATP’ [10 μl; comprising 50 μM ATP, 0.1 μCi^33P ATP (Amersham International cat. no. BF 1000) and 50 mM Mg(OCOCH3)21]. The plates were incubated at room temperature with gentle agitation. Plates containing p38α were incubated for 90 min and plates containing p38β were incubated for 45 min. Incubation was stopped by the addition of 50 μl of 20% trichloroacetic acid (TCA). The precipitated protein was phosphorylated by p38 kinase and test compounds were assessed for their ability to inhibit this phosphorylation. The plates were filtered using a Canberra Packard Unifilter and washed with 2% TCA, dried overnight and counted on a Top Count scintillation counter.
Test compounds were tested initially at a single dose and active compounds were retested to allow IC50 values to be determined.

[1] = system: TNFα production in human whole blood; assay: Human Whole Blood (HWB) test: LPS-stimulated TNFα production; type: cell-based; settings: approximate value
Protocol: The ability of the compounds of this invention to inhibit TNFα production was also assessed in a human whole blood assay. Human whole blood secretes TNFα when stimulated with LPS. This property of blood forms the basis of an assay which is used as a secondary test for compounds which profile as active in the PBMC test.
Heparinised (10 units/ml) human blood was obtained from volunteers. 160 μl whole blood were added to 96 well round-bottom plates (Corning 25850). Compounds were solubilised and serially diluted in RPMI 1640 medium (Gibco) supplemented with 50 units/ml penicillin, 50 μg/ml streptomycin and 2 mM glutamine, as detailed above. 20 μl of each test concentration was added to appropriate wells (triplicate cultures). 20 μl of RPMI 1640 medium supplemented with antibiotics and glutamine was added to control wells. Plates were incubated for 30 minutes at 37° C. (humidified incubator), prior to addition of 20 μl LPS (final concentration 10 μg/ml). RPMI 1640 medium was added to control wells. Six “LPS alone” and four “medium alone” controls were included on each plate. A known TNFαsynthesis/secretion inhibitor was included in each test. Plates were incubated for 6 hours at 37° C. (humidified incubator). Plates were centrifuged (2000 rpm for 10 minutes) and 100 μl plasma removed and stored at −70° C. (Corning 25850 plates). TNFα levels were measured by ELISA (see WO92/10190 and Current Protocols in Molecular Biology, vol 2 by Frederick M. Ausbel et al., John Wiley and Sons Inc.). The paired antibodies that were used in the ELIZA were obtained from R&D Systems (catalogue nos. MAB610 anti-human TNFα coating antibody, BAF210 biotinylated anti-human TNFα detect antibody).

[2] = system: TNFα production by human peripheral blood mononuclear cells; assay: PBMC test: LPS-stimulated TNFα production; type: cell-based; settings: approximate value
Protocol: The ability of compounds of this invention to inhibit TNFα production was assessed by using human peripheral blood mononuclear cells which synthesise and secrete TNFα when stimulated with lipopolysaccharide.
Peripheral blood mononuclear cells (PBMC) were isolated from heparinised (10 units/ml heparin) human blood by density centrifugation (Lymphoprep™; Nycomed). Mononuclear cells were resuspended in culture medium [RPMI 1640 medium (Gibco) supplemented with 50 units/ml penicillin, 50 μg/ml streptomycin, 2 mM glutamine and 1% heat-inactivated human AB serum (Sigma H-1513)]. Compounds were solubilised in DMSO at a concentration of 50 mM, diluted 1:100 in culture medium and subsequently serial dilutions were made in culture medium containing 1% DMSO. PBMCs (2.4×10^5 cells in 160 μl culture medium) were incubated with 20 μl of varying concentrations of test compound (triplicate cultures) or 20 μl culture medium containing 1% DMSO (control wells) for 30 minutes at 37° C. in a humidified (5% CO2/95% air) incubator (Falcon 3072; 96 well flat-bottom tissue culture plates). 20 μl lipopolysaccharide [LPS E. Coli 0111:B4 (Sigma L-4130), final concentration 10 μg/ml] solubilised in culture medium was added to appropriate wells. 20 μl culture medium was added to “medium alone” control wells. Six “LPS alone” and four “medium alone” controls were included on each 96 well plate. Varying concentrations of a known TNFα inhibitor were included in each test, i.e. an inhibitor of the PDE Type IV enzyme (for example see Semmler, J. Wachtel. H and Endres, S., Int. J. Immunopharmac. (1993), 15(3), 409-413) or an inhibitor of proTNFα convertase (for example, see McGeehan, G. M. el al. Nature (1994) 370, 558-561). Plates were incubated for 7 hours at 37° C. (humidified incubator) after which 100 μl of the supernatant was removed from each well and stored at −70° C. (96 well round-bottom plates; Corning 25850). TNFα levels were determined in each sample using a human TNFα ELISA (see WO92/10190 and Current Protocols in Molecular Biology, vol 2 by Frederick M. Ausbel et al., John Wiley and Sons Inc.). […]

T1 sequence (Q16539 whole entry): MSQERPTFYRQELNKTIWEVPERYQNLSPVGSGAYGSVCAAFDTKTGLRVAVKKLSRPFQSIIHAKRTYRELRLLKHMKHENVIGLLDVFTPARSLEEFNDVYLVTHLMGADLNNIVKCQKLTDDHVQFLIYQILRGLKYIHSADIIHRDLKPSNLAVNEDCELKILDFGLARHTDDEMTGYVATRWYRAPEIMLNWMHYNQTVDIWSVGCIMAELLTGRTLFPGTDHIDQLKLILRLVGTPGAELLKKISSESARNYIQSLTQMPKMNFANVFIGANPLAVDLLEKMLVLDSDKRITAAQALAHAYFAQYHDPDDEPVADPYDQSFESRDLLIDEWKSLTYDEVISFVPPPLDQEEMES

Work on `Cc1ccc(C(=O)Nc2cccc(N3CCOCC3)c2)cc1NC(=O)c1cccc(CN2CCN(C)CC2)c1` [Example 30, 4-methyl-3-[3-(4-methylpiperazin-1-ylmethyl)benzamido]-N-(3-morpholinophenyl)benzamide] yielded an IC50 (p38α) of about 50 nM and an IC50 [1] of about 5000 nM.

Molecule `COc1ccc(C(=O)Nc2cc(C(=O)NCCC3CCCCC3)ccc2C)cc1OC` [Example 11, N-(2-cyclohexylethyl)-3-(3,4-dimethoxybenzamido)-4-methylbenzamide] has an IC50 [2] of about 8000 nM and an IC50 (p38α) of about 1000 nM.

In the case of `CCCc1ccc(C(=O)Nc2cc(C(=O)Nc3cccc(N(C)C)c3)ccc2C)cc1` [Example 3, Compound No. 1, N-(3-dimethylaminophenyl)-4-methyl-3-(4-propylbenzamido)benzamide], the IC50 [2] is reported as about 6000 nM and the IC50 (p38α) is reported as about 300 nM.

`Cc1ccc(C(=O)Nc2cccc(N(C)C)c2)cc1NC(=O)c1ccc2ncccc2c1` [Example 12, N-(3-dimethylaminophenyl)-4-methyl-3-(6-quinolylcarbonylamino)benzamide] showed an IC50 [2] of about 22000 nM and an IC50 (p38α) of about 700 nM.

`Cc1ccc(C(=O)Nc2cccc(N3CCOCC3)c2)cc1NC(=O)c1cccc(OC2CCNCC2)c1` [Example 20, 4-methyl-N-(3-morpholinophenyl)-3-(3-piperidin-4-yloxybenzamido)benzamide] was tested, and the IC50 (p38α) was about 50 nM and the IC50 [1] was about 2000 nM.

With `CCN(CC)Cc1ccc(C(=O)Nc2cc(C(=O)Nc3cccc(N4CCOCC4)c3)ccc2C)cc1` [Example 31(4), 4-methyl-3-(4-diethylaminomethylbenzamido)-N-(3-morpholinophenyl)benzamide] the IC50 (p38α) was about 300 nM and the IC50 [1] was about 15000 nM.
